The source of these data is patent WO2015077660A1, “Enzyme reactor system enabling enhanced enzymatic digestion, analyte solubility and improved mass spectrometric compatibility” (priority 2013, dated 2014).

Structures can show the parent of a compound that is named as a salt.

Data set [1] relates to BSA. The data set can be described thus: Screen of additives for prevention of aggregation (Table 5). The data set is classed as physicochemical, bovine. To be noted: 12.5 mg/mL BSA, 70°C, four columns in printed order, heads missing.
The subject of data set [2] is T1, porcine trypsin.
T1 construct: purchased
Kind of data set: Comparing digestion buffers, solution digestion of insulin. Type of data set: biochemical. To be noted: 37°C, 18 hours, versus tris buffer containing calcium chloride.

Data set [3] concerns T1, porcine trypsin. Kind of data set: Insulin digestion by trypsin in solution, buffer screening (Table 9). Type of data set: biochemical. Particulars: for Digested / Peptide / Undigested: 37°C, 18 h; for trypsin digestion: high concentrations, as high as 500 mM.
In data set [4] the test system is trypsin. The data set can be described thus: Insulin digestion in immobilized enzyme reactor, buffer screening (Table 7). Type of data set: biochemical, porcine. Particulars: IMER; for Digested / Peptide / Undigested: 70°C, 60 s; for digestion efficiency: CaCl2 as high as 500 mM.
Data set [5] can be described thus: Plasma digestion with buffer/additive combinations, aggregation. To be noted: 10% in 50mM TBS, 100mM CaCl2; 90 minutes. The data set is classed as physicochemical, beagle.
Data set [6] concerns trypsin. Kind of data set: Human IgG digestion in response to calcium concentration (Table 11). Type of data set: biochemical, porcine. To be noted: CaCl2 above 1 mM.

Take `CN(C)C=O` [DMF, dimet ylformamide]: the aggregation entry in data set [1] (20%) was “Y and Υ”.

As to `N.O=C(O)O` [ammonium bicarbonate], in data set [2], the enzyme activity result is given as “significantly higher”.

`N=C(N)N` [Gdn HC1, guanidine hydrochloride]: the Digested in data set [3] (0.5M) turned out to be 216251; in data set [3] (1M) it was 215746; in data set [3] (2M), 184318; in data set [3] (4M), 30954; in data set [3] (6M), 5871; in data set [4] (0.5M), 723258. Also, the Digested in data set [4] (1M) was 423606; in data set [4] (2M), 136773; in data set [4] (4M) it was 40578; in data set [4] (6M), 9402. For the same molecule, the Peptide is recorded as 101735 in data set [3] (0.5M); 94828 in data set [3] (1M); 67546 in data set [3] (2M); 11014 in data set [3] (4M); 1647 in data set [3] (6M); 309390 in data set [4] (0.5M). For the same molecule, the Peptide is recorded as 179523 in data set [4] (1M), 56700 in data set [4] (2M), 15000 in data set [4] (4M) and 2447 in data set [4] (6M). The Undigested worked out at 5487176 in data set [3] (0.5M); 5229914 in data set [3] (1M); 5455780 in data set [3] (2M); 6195166 in data set [3] (4M); 5301367 in data set [3] (6M); 4114993 in data set [4] (0.5M). For the same molecule, the Undigested is given as 4328875 in data set [4] (1M), 4244827 in data set [4] (2M), 4562051 in data set [4] (4M) and 4396495 in data set [4] (6M). Further, in data set [1] (0.5M, listed as Guanidine HC1, hydrochloride), the aggregation result was “N and Ν”.

Turning to `NC=O` [Formamide], the aggregation entry in data set [5] is “significant aggregation”. The Digested was 1126069 in data set [3] (5%); 1509456 in data set [3] (10%); 973971 in data set [3] (15%); 470938 in data set [3] (20%); 1424720 in data set [4] (5%); 745680 in data set [4] (10%). The Digested in data set [4] (15%) was found to be 375288; in data set [4] (20%), 200621. For the same molecule, the Peptide turned out to be 500704 in data set [3] (5%); 693291 in data set [3] (10%); 421130 in data set [3] (15%); 194156 in data set [3] (20%); 580956 in data set [4] (5%); 305599 in data set [4] (10%). The Peptide in data set [4] (15%) came out at 155245; in data set [4] (20%), 82549. Besides, the Undigested is listed as 3871868 in data set [3] (5%); 4196754 in data set [3] (10%); 4281392 in data set [3] (15%); 4620417 in data set [3] (20%); 3061491 in data set [4] (5%); 3827192 in data set [4] (10%). Besides, the Undigested is on record as 4129486 in data set [4] (15%) and 4430620 in data set [4] (20%).

With `[Ca+2].[Cl-].[Cl-]` [CaCl2, calcium chloride], in data set [6], the enzyme efficiency result was “increase enzyme efficiency”. The Digested in data set [3] (0.05M) turned out to be 2007752; in data set [3] (0.1M), 2377399; in data set [3] (0.25M), 3241428; in data set [3] (0.5M), 3340960; in data set [3] (1M), 3203158; in data set [4] (0.05M) it was 2725600. The Digested in data set [4] (0.1M) is 2844924; in data set [4] (0.25M) it was 2950068; in data set [4] (0.5M) it was 3031625; in data set [4] (1M) it was 3066738. Also, the Peptide in data set [3] (0.05M) is on record as 860714; in data set [3] (0.1M), 1074482; in data set [3] (0.25M) it was 1430859; in data set [3] (0.5M), 1474912; in data set [3] (1M), 1344334; in data set [4] (0.05M), 1172085. Besides, the Peptide was determined as 1221898 in data set [4] (0.1M), 1264212 in data set [4] (0.25M), 1290650 in data set [4] (0.5M) and 1263872 in data set [4] (1M). Besides, the Undigested in data set [3] (0.05M) was found to be 2746822; in data set [3] (0.1M) it was 2139571; in data set [3] (0.25M), 2885626; in data set [3] (0.5M), 856015; in data set [3] (1M) it was 949033; in data set [4] (0.05M) it was 802494. Also, the Undigested in data set [4] (0.1M) was 609138; in data set [4] (0.25M) it was 571246; in data set [4] (0.5M) it was 234332; in data set [4] (1M), 16129. Also, the figures for the trypsin digestion result in data set [3] and in data set [3] (listed as calcium chloride) were “An increase in digestion was observed” and “dramatically improve trypsin digestion”, respectively. For the same molecule, the digestion efficiency entry is listed as “An increase in digestion was observed” in data set [4] and “digestion efficiency increased dramatically” in data set [4] (listed as calcium chloride).

As for `NC(CO)(CO)CO` [Tris], the Digested in data set [3] (0.05M) is on record as 1995427; in data set [3] (0.1M), 2524942; in data set [3] (0.25M) it was 3462464; in data set [3] (0.5M), 3218135; in data set [3] (1M), 3458079; in data set [4] (0.05M) it was 2479332. Further, the Digested is 2540889 in data set [4] (0.1M), 2440181 in data set [4] (0.25M), 2205308 in data set [4] (0.5M) and 1923103 in data set [4] (1M). For the same molecule, the Peptide is recorded as 860551 in data set [3] (0.05M); 1101647 in data set [3] (0.1M); 1564913 in data set [3] (0.25M); 1297337 in data set [3] (0.5M); 1431917 in data set [3] (1M); 879474 in data set [4] (0.5M). For the same molecule, the Peptide in data set [4] (1M) is given as 745060. Further, the Undigested in data set [3] (0.05M) worked out at 3125626; in data set [3] (0.1M) it was 2122289; in data set [3] (0.25M), 997441; in data set [3] (0.5M), 780101; in data set [3] (1M), 1156801; in data set [4] (0.05M) it was 893529. Besides, the Undigested in data set [4] (0.1M) stood at 990996; in data set [4] (0.25M), 1291934; in data set [4] (0.5M), 1490447; in data set [4] (1M), 2177969.

In the case of `C[C@H](CCC(=O)O)[C@H]1CC[C@H]2[C@@H]3CC[C@@H]4C[C@H](O)CC[C@]4(C)[C@H]3C[C@H](O)[C@]12C` [Deoxycholate], the aggregation result in data set [1] (additive concentration not given) was “Υ”.

In data set [3] (50 mM), `O=S(=O)(O)CCN1CCN(CCO)CC1` [HEPES] came in with a Digested of 1758816, a Peptide of 758959 and an Undigested of 2816170. Further, in data set [4] (50 mM), the Digested is 2438065, the Peptide is reported as 1040553 and the Undigested turned out to be 1152957.

`CC#N` [ACN, acetonitrile]: the Digested in data set [3] (5%) came out at 1409360; in data set [3] (10%), 1676314; in data set [3] (15%), 1925305; in data set [3] (20%) it was 2507679; in data set [4] (5%), 1344796; in data set [4] (10%), 719966. Moreover, the values for the Digested in data set [4] (15%) and in data set [4] (20%) were 292205 and 194140, respectively. In addition, the Peptide in data set [3] (5%) was 625535; in data set [3] (10%), 692364; in data set [3] (15%), 779339; in data set [3] (20%), 1020020; in data set [4] (5%), 568057; in data set [4] (10%), 309638. Moreover, the Peptide was found to be 116402 in data set [4] (15%) and 86754 in data set [4] (20%). For the same molecule, the Undigested is given as 5143004 in data set [3] (5%); 4742266 in data set [3] (10%); 2715010 in data set [3] (15%); 3445401 in data set [3] (20%); 3327305 in data set [4] (5%); 4860471 in data set [4] (10%). Besides, the Undigested is recorded as 5326017 in data set [4] (15%) and 6433237 in data set [4] (20%).
